Measured values taken from patent US20150105252A1, “SUBSTITUTED PYRAZOLES AS HERBICIDES” (E I DU PONT DE NEMOURS AND COMPANY, priority 2013, published 2015).

Tests used:
lambsquarters = experiment: Test C preemergence; type: in vivo, Chenopodium album; conditions: for Lambsquarters plant response rating: preemergence
Method in brief: (§1)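 Visual rating, 0–100 scale (0 no effect, 100 complete control), vs untreated controls after 13–15 d greenhouse. Pre: seeds in loam/sand, treated at sowing. Post: plants in peat-based mix, 1- to 4-leaf (2–18 cm). Solvent + surfactant formulation, non-phytotoxic.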

blackgrass = experiment: Test C postemergence; type: in vivo, Alopecurus myosuroides
Method in brief: as §1

ryegrass, Italian = experiment: Test C postemergence; type: in vivo, Lolium multiflorum
Method in brief: as §1

wheat = experiment: Test C postemergence; type: in vivo, Triticum aestivum
Method in brief: as §1

galium = experiment: Test C postemergence; type: in vivo, Galium aparine
Method in brief: as §1

corn = experiment: Test C postemergence; type: in vivo, Zea mays
Method in brief: as §1

crabgrass, large = experiment: Test C postemergence; type: in vivo, Digitaria sanguinalis
Method in brief: as §1

foxtail, giant = experiment: Test C postemergence; type: in vivo, Setaria faberii
Method in brief: as §1

morningglory = experiment: Test C postemergence; type: in vivo, Ipomoea coccinea
Method in brief: as §1

ragweed = experiment: Test C postemergence; type: in vivo, Ambrosia elation
Method in brief: as §1

soybean = experiment: Test C postemergence; type: in vivo, Glycine max
Method in brief: as §1

barnyardgrass = experiment: Test C postemergence; type: in vivo, Echinochloa crus-galli
Method in brief: as §1

waterhemp = experiment: Test C postemergence; type: in vivo, Amaranthus rudis
Method in brief: as §1

chickweed = experiment: Test C postemergence; type: in vivo, Stellaria media
Method in brief: as §1

[1] = Postemergence, 31 g ai/ha, visually evaluated after 13 to 15 days
[2] = postemergence, 62 g ai/ha, scale 0 to 100
[3] = postemergence, 250 g ai/ha, scale 0 to 100 (0 no effect, 100 complete control)
[4] = postemergence, 125 g ai/ha, scale 0 to 100, 0 no effect, 100 complete control

`CCCc1cc(C(=O)NCC(F)(F)F)nn1Cc1ccnc(C(F)(F)F)c1` [Compound 105] was tested, and the “Plant response rating (scale of 0 to 100), Lambsquarters” value (lambsquarters; Preemergence, 250 g ai/ha) was 100, the “Lambsquarters plant response rating” value (lambsquarters; 31 g ai/ha, visual rating, scale 0 to 100 (0 no effect, 100 complete control), 13 to 15 days) was 85 and the “Lambsquarters plant response rating” value (lambsquarters; 62 g ai/ha, scale 0 to 100 (0 no effect, 100 complete control), 13 to 15 days) was 100. The “Lambsquarters plant response rating” value (lambsquarters; 125 g ai/ha, scale 0 to 100, 0 is no effect, 100 is complete control) was 100, the “Plant response rating (scale of 0 to 100 where 0 is no effect and 100 is complete control), Blackgrass” value (blackgrass; [1]) was 10 and the “Blackgrass plant response rating” value (blackgrass; [2]) was 30. For the same compound, the “Plant response rating, Blackgrass” value (blackgrass; [3]) was 60, the “Plant response rating, Blackgrass” value (blackgrass; [4]) was 35 and the “Plant response rating (scale of 0 to 100 where 0 is no effect and 100 is complete control), Ryegrass, Italian” value (ryegrass, Italian; [1]) was 5. The “Ryegrass, Italian plant response rating” value (ryegrass, Italian; [2]) was 10, the “Plant response rating, Ryegrass, Italian” value (ryegrass, Italian; [3]) was 45 and the “Plant response rating, Ryegrass, Italian” value (ryegrass, Italian; [4]) was 30. For the same compound, the “Plant response rating (scale of 0 to 100 where 0 is no effect and 100 is complete control), Wheat” value (wheat; [1]) was 5, the “Wheat plant response rating” value (wheat; [2]) was 5 and the “Plant response rating, Wheat” value (wheat; [3]) was 45. The “Plant response rating, Wheat” value (wheat; [4]) was 10, the “Plant response rating (scale of 0 to 100 where 0 is no effect and 100 is complete control), Galium” value (galium; [1]) was 55 and the “Galium plant response rating” value (galium; [2]) was 85. The “Plant response rating, Galium” value (galium; [3]) was 90, the “Plant response rating, Galium” value (galium; [4]) was 85 and the “Plant response rating (scale of 0 to 100 where 0 is no effect and 100 is complete control), Corn” value (corn; [1]) was 15. For the same compound, the “Corn plant response rating” value (corn; [2]) was 40, the “Plant response rating, Corn” value (corn; [3]) was 85 and the “Plant response rating, Corn” value (corn; [4]) was 60. For the same compound, the “Plant response rating (scale of 0 to 100 where 0 is no effect and 100 is complete control), Crabgrass, Large” value (crabgrass, large; [1]) was 35, the “Crabgrass, Large plant response rating” value (crabgrass, large; [2]) was 45 and the “Plant response rating, Crabgrass, Large” value (crabgrass, large; [3]) was 95. The “Plant response rating, Crabgrass, Large” value (crabgrass, large; [4]) was 90, the “Plant response rating (scale of 0 to 100 where 0 is no effect and 100 is complete control), Foxtail, Giant” value (foxtail, giant; [1]) was 15 and the “Foxtail, Giant plant response rating” value (foxtail, giant; [2]) was 40. The “Plant response rating, Foxtail, Giant” value (foxtail, giant; [3]) was 85, the “Plant response rating, Foxtail, Giant” value (foxtail, giant; [4]) was 75 and the “Plant response rating (scale of 0 to 100 where 0 is no effect and 100 is complete control), Morningglory” value (morningglory; [1]) was 80. The “Morningglory plant response rating” value (morningglory; [2]) was 80, the “Plant response rating, Morningglory” value (morningglory; [3]) was 95 and the “Plant response rating, Morningglory” value (morningglory; [4]) was 85. The “Plant response rating (scale of 0 to 100 where 0 is no effect and 100 is complete control), Ragweed” value (ragweed; [1]) was 30, the “Ragweed plant response rating” value (ragweed; [2]) was 40 and the “Plant response rating, Ragweed” value (ragweed; [3]) was 80. The “Plant response rating, Ragweed” value (ragweed; [4]) was 65, the “Plant response rating (scale of 0 to 100 where 0 is no effect and 100 is complete control), Soybean” value (soybean; [1]) was 80 and the “Soybean plant response rating” value (soybean; [2]) was 80. The “Plant response rating, Soybean” value (soybean; [3]) was 95, the “Plant response rating, Soybean” value (soybean; [4]) was 95 and the “Plant response rating (scale of 0 to 100 where 0 is no effect and 100 is complete control), Barnyardgrass” value (barnyardgrass; [1]) was 10. For the same compound, the “Barnyardgrass plant response rating” value (barnyardgrass; [2]) was 20, the “Plant response rating, Barnyardgrass” value (barnyardgrass; [3]) was 85 and the “Plant response rating, Barnyardgrass” value (barnyardgrass; [4]) was 45. For the same compound, the “Plant response rating (scale of 0 to 100 where 0 is no effect and 100 is complete control), Waterhemp” value (waterhemp; [1]) was 65, the “Waterhemp plant response rating” value (waterhemp; [2]) was 75 and the “Plant response rating, Waterhemp” value (waterhemp; [3]) was 85. The “Plant response rating, Waterhemp” value (waterhemp; [4]) was 75, the “Plant response rating (scale of 0 to 100 where 0 is no effect and 100 is complete control), Chickweed” value (chickweed; [1]) was 90 and the “Chickweed plant response rating” value (chickweed; [2]) was 90. The “Plant response rating, Chickweed” value (chickweed; [3]) was 95 and the “Plant response rating, Chickweed” value (chickweed; [4]) was 95.
